Where “and” joins values, the source holds several entries; their conditions need not be identical. Identical values can stand only once.
Columns and labels:
CYP2D6 = CYP2D6 (Homo sapiens (Human), UniProt P10635); assay: biochemical; type: biochemical; conditions: human recombinant CYP2D6, AMMC substrate; read-out: CYP450 IC50 2D6
Description: (§1) The CYP450 inhibition assays utilized microsomes from insect cells expressing human recombinant individual cDNA-expressed CYP isoforms 3A4 and 2D6, as well as the fluorogenic probe that produces fluorescent metabolite. Standard inhibitors were co-incubated with fluorogenic substrates and their inhibitory potential (IC50) was determined. Assay conditions in terms of CYP450 protein concentration and time of incubation were standardized, enzyme kinetics parameters of each fluorescent probe substrate were estimated and IC50 values of inhibitors were determined and validated on different days to check reproducibility.
(§2) A 100 mM sodium phosphate buffer was prepared and adjusted to pH 7.4. In a separate falcon tube, a 2× enzyme/substrate (E/S) solution was prepared in phosphate buffer. The final concentration of CYP2D6 (CORNING®) and […] (AMMC) was 10 nM and 4 μM, and CYP3A4 (CORNING®) and 7-benzyloxy-4-(trifluoromethyl) coumarin (BFC) was 20 nM and 40 μM, respectively. In a separate falcon tube, a 2×NADPH regenerating system (NRS) was prepared in phosphate buffer. The final concentration for each component in the assay was as follows: • CYP2D6 assay: 0.008 mM NADPH, 3.3 mM glucose 6-phosphate, 0.4 U of glucose-6-phosphate dehydrogenase per mL
(§3) Both enzymatic assays were conducted in a 96-well microtiter plate (Black, CORNING® COSTAR®) with a final volume of 100 μL. Preparation of the plate began with the addition of 74 μL of the E/S in the first well, and 50 μL to all subsequent wells (from 2-11). The test compounds (1 μL) were dissolved in the first well to give the first row a final volume of 75 μL. A 1:3 serial dilution of the test compound was conducted by removing 25 μL from the first well and diluting it with the second and so forth until the tenth row. Final concentrations yielded a range from 200 μM-0.01 μM. Well no. 11 contained no inhibitor, and well no. 12 contained no enzyme. Both were used as controls for background fluorescence. The plate was incubated for 30 min at 37° C. After incubation, the reaction was initiated by the addition of 50 μL of the 2×NRS to each well.
Immediately (within 1 min) the fluorescence was measured using a microplate reader (BIOTEK® Synergy Neo2). CYP2D6 was monitored at Ex/Em=410/460 nm, and CYP3A4 monitored at Ex/Em=410/538 nm in kinetic mode that scanned every 5 min for 60 mins. Data was exported and analyzed using Graph Pad Prism 7. […] The IC50 value was derived after the data was fitted on a 10-point curve using a four-parameter logistic regression model.

CYP3A4 = CYP3A4 (Homo sapiens (Human), UniProt P08684); assay: Fluorometric CYP450 enzyme inhibition assay, CYP3A4; type: biochemical; conditions: human recombinant CYP3A4, BFC substrate; read-out: CYP450 IC50 3A4
Description: as §1, §2
as §3, with “The test compounds (1 μL) were dissolved in the first well to give the first row a final volume of 75 μL.” left out
Immediately (within 1 min) the fluorescence was measured using a microplate reader (BIOTEK® Synergy Neo2). […] Data was exported and analyzed using Graph Pad Prism 7. […] The IC50 value was derived after the data was fitted on a 10-point curve using a four-parameter logistic regression model.

[1] = Metabolic stability assay in human liver microsomes (HLM); type: in vitro ADME; conditions: NADPH, sampled 0-120 min; for HLM t1/2: 3 μM test compound; for half-life at 3 µM: pH 7.4, 3 μM test compound, read-out: HLM t1/2
Description: The LC-MS/MS analysis was performed using Agilent 1260 Infinity II HPLC, coupled with an Agilent G6460 triple quadrupole mass spectrometer (Agilent Technologies, USA). All the data were acquired employing Agilent 6460 Quantitative Analysis data processing software.
Reverse-phase HPLC separation for each compound was achieved either on an Agilent Porshell 120 EC-C8 column (2.1×50 mm, 2.7 μm), or on an Agilent Zorbax XDB C18 column (2.1×50 mm, 3.5 μm) with a mobile phase composed of methanol-water-formic acid or acetonitrile-water-formic acid (0.1%) at a flow rate of 0.5 mL/min (changes for some compounds). Each method was developed in the presence of an internal standard (ISTD) d5-7-ethoxy coumarin. The column temperature was maintained at 40° C. for most of the samples otherwise noted. The detection was operated in the Agilent JetStream electrospray positive ionization using multiple reaction monitoring mode (MRM).
Other MS conditions were as follows: dwell time 100 ms; gas flow 10 L/min; nebulizer pressure 45 psi; delta EMV 200 V; fragmentor voltage and collision energy for individual compounds vary.
Test compounds were dissolved in 100% DMSO or 100% MeOH to make 10 mM stock solutions. Verapamil (Sigma Aldrich) aided as a positive control and was dissolved in 100% DMSO to make 10 mM stock solutions. The 10 mM stock solution of test and control compounds were further diluted in potassium phosphate buffer (100 mM, pH 7.4) to 500 μM to ensure the organic solvent content was <0.2%. Human liver microsomes (HLMs) were purchased from Xenotech at 20 mg/mL. NADPH (Sigma Aldrich) 10 mM stocks were prepared in deionized water.
The HLM assay was prepared in a 1.5 mL Eppendorf tube with a final volume of 1100 μL for duplicate runs. Each reaction contained phosphate buffer (928.4 μL), liver microsomes (55 μL), and test compound resulting in a final concentration of 3 μM (6.6 μL of 500 μM). The reaction was initiated with 110 μL of 10 mM NADPH. Aliquots (100 μL) were removed in duplicate at 0, 15, 30, 60, 120 min (for prodrug compounds) and 0, 5, 10, 15, 30 min (verapamil, positive control compound) time intervals and quenched in cold […] of 100% methanol which contained internal standard (ISTD: d5-7-ethoxy coumarin 4 μM). Before centrifugation each of the aliquoted tubes were vortexed to make sure compounds were in the solution. The aliquots were centrifuged at 12,000 g for 5 min and the supernatant removed and placed in an LC-MS vial. Each time point was assessed using LC-MS and the area, based on the extracted ion, was integrated with respect to the ISTD. Positive controls were conducted at a final volume of 550 μL to give each time point in a single run. A no-NADPH negative control with test or control compound was performed in a single run (150 μL) at the longest time point. Controls were processed and analyzed like the test compounds. Each time point was run in duplicates followed by in-between blank washes to avoid the carryover and to equilibrate the column.

HEK293 cells = conditions: 50% cytotoxic concentration; italicized results: absence of human serum albumin
HIV = assay: microbe, parasite or virus in culture; type: cell-based; conditions: pseudoviral particles, HEK293 cells; italicized results: absence of human serum albumin; read-out: HIV IC50

Sequence of CYP3A4 (P08684 whole entry): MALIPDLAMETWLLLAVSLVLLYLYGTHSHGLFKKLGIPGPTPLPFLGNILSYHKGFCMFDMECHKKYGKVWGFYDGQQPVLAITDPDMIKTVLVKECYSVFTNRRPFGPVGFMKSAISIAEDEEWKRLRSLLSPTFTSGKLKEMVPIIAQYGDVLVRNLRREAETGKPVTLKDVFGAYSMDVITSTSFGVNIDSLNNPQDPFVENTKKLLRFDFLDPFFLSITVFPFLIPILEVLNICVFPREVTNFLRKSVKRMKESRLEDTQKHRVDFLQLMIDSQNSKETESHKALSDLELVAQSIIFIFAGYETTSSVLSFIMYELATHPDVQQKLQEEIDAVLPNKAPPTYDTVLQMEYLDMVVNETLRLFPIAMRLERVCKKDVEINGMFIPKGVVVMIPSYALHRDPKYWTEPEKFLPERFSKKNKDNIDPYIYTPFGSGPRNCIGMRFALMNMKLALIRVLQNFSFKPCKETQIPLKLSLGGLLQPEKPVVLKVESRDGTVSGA
Sequence of CYP2D6 (P10635 whole entry, canonical isoform): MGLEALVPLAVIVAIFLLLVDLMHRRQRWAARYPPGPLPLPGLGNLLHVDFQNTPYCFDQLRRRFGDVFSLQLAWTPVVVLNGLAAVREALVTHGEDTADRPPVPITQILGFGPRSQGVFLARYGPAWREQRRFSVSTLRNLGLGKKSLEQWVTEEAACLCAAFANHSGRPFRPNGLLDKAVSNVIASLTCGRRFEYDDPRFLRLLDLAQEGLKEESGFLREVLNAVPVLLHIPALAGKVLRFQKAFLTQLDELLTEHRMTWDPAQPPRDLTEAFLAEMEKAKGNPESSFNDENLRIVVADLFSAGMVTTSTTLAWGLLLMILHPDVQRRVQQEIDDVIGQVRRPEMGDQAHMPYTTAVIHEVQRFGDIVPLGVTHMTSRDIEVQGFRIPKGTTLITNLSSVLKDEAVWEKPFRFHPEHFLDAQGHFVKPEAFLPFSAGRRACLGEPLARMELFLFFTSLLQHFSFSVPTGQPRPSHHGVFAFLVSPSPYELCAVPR

Molecule	IC50 (CYP2D6) [µM]	IC50 (CYP3A4) [µM]	HLM t1/2 [1] [h]	CC50 (HEK293 cells) [µM]	IC50 (HIV)	half-life at 3 µM [1] [h]
C#CCCCCCCCCCCCCCCOCCCOP(=O)(O)CO[C@H](C)Cn1cnc2c(N)ncnc21.N [MD-5-72, Ammonium 3-(hexadec-15-yn-1-yloxy)propyl (R)-(((1-(6-amino-9H-purin-9-yl)propan-2-yl)oxy)methyl)phosphonate]	> 20	> 20	>2	> 100		
C[C@H](Cn1cnc2c(N)ncnc21)OCP(=O)(O)OCCCOCCCCCCCCCCCCCC#CC(F)(F)F.N [NP-PD-149, Ammonium [(1R)-2-(6-aminopurin-9-yl)-1-methyl-ethoxy]methyl-[3-(16,16,16-trifluorohexadec-14-ynoxy)propoxy]phosphinate]	> 20	12	>2	> 100		
C[C@H](Cn1cnc2c(N)ncnc21)OCP(=O)(O)OCCCCCCCCCCCCCCCCC#C[Si](C)(C)C.N [NP-PD-042, Ammonium [(1R)-2-(6-aminopurin-9-yl)-1-methyl-ethoxy]methyl-(18-trimethylsilyloctadec-17-ynoxy)phosphinate]	27.1	27	>2	68.1		
C[C@H](Cn1cnc2c(N)ncnc21)OCP(=O)(O)OCCCOCCCCCCCCCCCCCCCC(F)(F)F.N [NP-PD-158, Ammonium [(1R)-2-(6-aminopurin-9-yl)-1-methyl-ethoxy]methyl-[3-(16,16,16-trifluorohexadecoxy)propoxy]phosphinate]	> 20	> 20	>2	> 100		
C[C@H](Cn1cnc2c(N)ncnc21)OCP(=O)(O)OCCCCCCCCCCCCCCCCCC#CC(F)(F)F.N [NP-PD-102, Ammonium [(1R)-2-(6-aminopurin-9-yl)-1-methyl-ethoxy]methyl-(20,20,20-trifluoroicos-18-ynoxy)phosphinate]	> 20	> 20	>2	78.7		
C#CCCCCCCCCCCCCCCCCCCOP(=O)(O)CO[C@H](C)Cn1cnc2c(N)ncnc21.N [Compound B1-1-065, Ammonium icos-19-yn-1-yl (R)-(((1-(6-amino-9H-purin-9-yl)propan-2-yl)oxy)methyl)phosphonate]	21.9	> 50	>2	99.5		
C#CCCCCCCCCCCCCCCCCOP(=O)(O)CO[C@H](C)Cn1cnc2c(N)ncnc21.N [Compound B1-1-024, Ammonium octadec-17-yn-1-yl ((((R)-1-(6-amino-9H-purin-9-yl)propan-2-yl)oxy)methyl)phosphonate]	2.39	18.7	>2	> 100		
C[C@H](Cn1cnc2c(N)ncnc21)OCP(=O)(O)O [TFV, tenofovir, reference compound]	> 50	45.8	>2		2.06 µM and 1.6 µM	
C[C@H](Cn1cnc2c(N)ncnc21)OCP(=O)(O)OCCCSCCCCCCCCCCCCC#C[Si](C)(C)C.N [MD-1-187, Ammonium 3-((14-(trimethylsilyl)tetradec-13-yn-1-yl)thio)propyl (R)-(((1-(6-amino-9H-purin-9-yl)propan-2-yl)oxy)methyl)phosphonate]	> 20	> 20				> 2
C#CCCCCCCCCCCCCCOP(=O)(O)CO[C@H](C)Cn1cnc2c(N)ncnc21.N [EJM-8-006, Ammonium pentadec-14-yn-1-yl (R)-(((1-(6-amino-9H-purin-9-yl)propan-2-yl)oxy)methyl)phosphonate]	84.9	54.8	1.57	> 100		
C#CCCCCCCCCCCCCCCCCSCCCOP(=O)(O)CO[C@H](C)Cn1cnc2c(N)ncnc21.N [BI-1-057, Ammonium 3-(octadec-17-yn-1-ylthio)propyl (R)-(((1-(6-amino-9H-purin-9-yl)propan-2-yl)oxy)methyl)phosphonate]	20.2	37				> 2
Ammonium 3-((14-trimethylsilyl)tetradec-13-yn-1-yl)propyl(R)-(((1-(6-amino-9H-purin-9-yl)propan-2-yl)oxy)methyl)phosphonate [NP-PD-130]	21.7	> 20	>2			
C[C@H](Cn1cnc2c(N)ncnc21)OCP(=O)(O)OCCCSCCCCCCCCCCCSc1ccccc1.N [MD-1-119, Ammonium 3-((11-(phenylthio)undecyl)thio)propyl (R)-(((1-(6-amino-9H-purin-9-yl)propan-2-yl)oxy)methyl)phosphonate]	36.3	11				0.2
C[C@H](Cn1cnc2c(N)ncnc21)OCP(=O)(O)OCCCCCCCCCCCCCCCCCCCC(F)(F)F.N [NP-PD-105, ammonium [(1R)-2-(6-aminopurin-9-yl)-1-methyl-ethoxy]methyl-(20,20,20-trifluoroicosoxy)phosphinate]	> 20	> 20	>2	72.4		
